Assay: Competitive inhibition of pig uterine fluid fully reduced PAP using p-NPP as substrate measured at 4.9 by UV-Vis spectrophotometric analysis
Type: tissue-based, Sus scrofa

Going from CCCCCCCCCCCCCCCCOCC(=O)NC(c1ccccc1)P(=O)(O)O (racemic) to CCCCCCCCCCCCCCCCCC(=O)NC(c1ccccc1)P(=O)(O)O (racemic), the Ki falls from 550 nM to 168 nM (3.3-fold).

Going from CCCCCCCCCCCCCCCCCC(=O)NC(c1ccc(OC)cc1)P(=O)(O)O (racemic) to CCCCCCCCCCCCCCCC(=O)NC(c1ccc(OC)cc1)P(=O)(O)O (racemic), the Ki rises from 186 nM to 340 nM (1.8-fold).

Going from CCCCCCCCOCC(=O)NC(c1ccccc1)P(=O)(O)O (racemic) to CCCCCCCCCC(=O)NC(c1ccccc1)P(=O)(O)O (racemic), the Ki falls from 56000 nM to 19000 nM (2.9-fold). The second binds more tightly here.

Compared with CCCCCCCCCCCCCCCC(=O)NC(c1ccc(OCC)cc1)P(=O)(O)O (racemic), CCCCCCCCCCCCCCCCCC(=O)NC(c1ccc(OCC)cc1)P(=O)(O)O (racemic) is 9.8-fold higher in Ki: 610 nM for the first, 6000 nM for the second. The first binds more tightly here.

Going from CCCCCCCCCCCC(=O)NC(c1ccccc1)P(=O)(O)O (racemic) to CCCCCCCCCCCCCC(=O)NC(c1ccccc1)P(=O)(O)O (racemic), the Ki falls from 31000 nM to 320 nM (97-fold).

First: CCCCCCCCCCCCCC(=O)NC(c1ccc(OCC)cc1)P(=O)(O)O (racemic)
Second: CCCCCCCCCCCCCC(=O)NC(c1ccc(OC)cc1)P(=O)(O)O (racemic)
The Ki of the first is 7.5-fold higher: 3000 nM for the first, 400 nM for the second. The second binds more tightly here.

Going from CCCCCCCCCCCCCCCC(=O)NC(c1ccccc1)P(=O)(O)O (racemic) to CCCCCCCCCCCC(=O)NC(c1ccc(OC)cc1)P(=O)(O)O (racemic), the Ki rises from 320 nM to 3000 nM (9.4-fold).

In the case of CCCCCCCCCCCCCCCCOCC(=O)NC(c1ccc(OC)cc1)P(=O)(O)O (racemic), the Ki is reported as 270 nM.
